Data: US20240299345A1, “GINKGOLIDE B AND ITS DERIVATIVES FOR INHIBITING AND/OR REVERSING AGING” (CHINA MEDICAL UNIVERSITY, priority 2023, published 2024)

Tests used:
[1] = tested on: 20-month-old female C57BL/6 mice; assay: Lifespan and cancer incidence analysis, lifelong GB from 20 months of age; type: in vivo, mouse
Excerpt: The mice were not involved in any experiments to maximally reduce potential interference and stress to animals.

[2] = tested on: circulating inflammatory cytokines and chemokines; assay: Serum 40-plex cytokine/chemokine panel in aged mice; type: in vivo, mouse; settings: of 40 detected, GB 2 months
Excerpt: Serum was collected by cardiac puncture upon sacrifice.

In the case of CC1C(=O)OC2C(O)C34C5CC(C(C)(C)C)C36C(OC(=O)C6O)OC4(C(=O)O5)C12O (stereo not shown) [GB, Ginkgolide B], the “age at 50% cumulative cancer incidence” value ([1]; GB group, vehicle 891 days, p=0.0002 log-rank) is reported as 1025 days, the aging-associated mortality ([1]; GB vs vehicle aged mice) is reported as “delayed” and the “hazard ratio by Mantel-Haenszel” value ([1]; GB vs vehicle aged mice) is reported as 0.4577. The “hazard ratio by log-rank test” value ([1]; GB vs vehicle aged mice) was 0.3526, the “macroscopic tumors detected by necropsy” value ([1]; GB-aged mice compared with vehicle group) was “less macroscopic tumors” and the median lifespan extension ([1]; from the inception of GB administration at 20 months, 12 mg/kg daily, p=0.0002 log-rank, 0.0064 Gehan-Breslow-Wilcoxon) was 30%. The “lifespan extension (summary statement)” value ([1]; lifelong oral GB in mice starting from 20 months old) was 20%, the “median lifespan extensions by tumor incidence” value ([1]; p=0.0011 and 0.03 by log-rank test) was “observed in both tumor and non-tumor cohorts” and the “extension of mean maximal lifespans of the 10% and 20% longest-lived mice” value ([1]; p=0.0286 and 0.0006) was “around 55 days”. For the same compound, the “number of circulating proteins significantly altered” value [2] was 12.
